# Patent US6686373B2, “Pyrazoloquinolinone derivatives as protein kinase C inhibitors” (Warner-Lambert Company LLC, priority 2001, dated 2004)
# Counter-ions that a name gives are not always drawn.
row,melting point,SMILES
1,235 to 240 °C,CN(C)CCOc1ccc(Cc2ccc3[nH]c4cnn(C)c4c(=O)c3c2)cc1.Cl
2,287 °C (dec.),Cl.Cn1ncc2[nH]c3ccc(Cc4cccc(N)c4)cc3c(=O)c21
3,273 °C,Cl.Cn1ncc2[nH]c3ccc(Cc4ccccc4N)cc3c(=O)c21
4,> 300 °C,Cl.Cn1ncc2[nH]c3ccc(Cc4ccc(CN)cc4)cc3c(=O)c21
5,> 300 °C,Cl.Cn1ncc2[nH]c3ccc(Cc4cccc(CN)c4)cc3c(=O)c21
6,> 250 °C,Cl.Cn1ncc2[nH]c3ccc(Cc4ccccc4CN)cc3c(=O)c21
7,259 °C,Cl.Cn1ncc2[nH]c3ccc(Cc4cccnc4)cc3c(=O)c21
8,> 300 °C,Cl.Cn1ncc2[nH]c3ccc(CCCN)cc3c(=O)c21
9,80 to 82 °C,CCCCCCn1c2ccc(C)cc2c(=O)c2c1cnn2C
10,240 °C,Cc1ccc2c(c1)c(=O)c1c(cnn1C)n2CCCN(C)C.Cl
11,255 °C,Cc1ccc2c(c1)c(=O)c1c(cnn1C)n2CCN(C)C.Cl
12,210 °C,Cc1ccc2c(c1)c(=O)c1c(cnn1C)n2CCCCCCN(C)C.Cl
13,213 °C,CCN(C)CCCn1c2ccc(C)cc2c(=O)c2c1cnn2C.Cl
14,> 280 °C,Cc1ccc2c(c1)c(=O)c1c(cnn1C)n2CCN.Cl
15,> 250 °C,Cn1ncc2[nH]c3c(c(=O)c21)CC(Cc1ccccc1)CC3 (stereo not drawn) (as salt: hydrochloride)
16,279 °C,Cn1ncc2[nH]c3c(c(=O)c21)CC(Cc1ccc(Cl)cc1)CC3 (stereo not drawn) (as salt: hydrochloride)
17,301 °C,"Cn1ncc2[nH]c3ccc(F)cc3c(=O)c21 [Example 1, 7-FLUORO-1-METHYL-1,4-DIHYDRO-9H-PYRAZOLO[4,3-b]QUINOLIN-9-ONE]"
18,> 300 °C,"Cn1ncc2[nH]c3c(F)cccc3c(=O)c21 [Example 2, 5-FLUORO-1-METHYL-1,4-DIHYDRO-9H-PYRAZOLO[4,3-b]QUINOLIN-9-ONE]"
19,269 °C,"Cn1ncc2[nH]c3cc(F)ccc3c(=O)c21 [Example 3, 6-FLUORO-1-METHYL-1,4-DIHYDRO-9H-PYRAZOLO[4,3-b]QUINOLIN-9-ONE]"
20,> 300 °C,"Cn1ncc2[nH]c3cccc(F)c3c(=O)c21 [Example 4, 8-FLUORO-1-METHYL-1,4-DIHYDRO-9H-PYRAZOLO[4,3-b]QUINOLIN-9-ONE]"
21,287 °C,"Cn1ncc2[nH]c3c(Br)cccc3c(=O)c21 [Example 5, 5-BROMO-1-METHYL-1,4-DIHYDRO-9H-PYRAZOLO[4,3-b]QUINOLIN-9-ONE]"
22,266 °C,"CCc1ccc2[nH]c3cnn(C)c3c(=O)c2c1 [Example 6, 7-ETHYL-1-METHYL-1,4-DIHYDRO-9H-PYRAZOLO[4,3-b]QUINOLIN-9-ONE]"
23,254 °C,"CCc1cccc2c(=O)c3c(cnn3C)[nH]c12 [Example 7, 5-ETHYL-1-METHYL-1,4-DIHYDRO-9H-PYRAZOLO[4,3-b]QUINOLIN-9-ONE]"
24,250 °C,"CCc1cccc2[nH]c3cnn(C)c3c(=O)c12 [Example 8, 8-ETHYL-1-METHYL-1,4-DIHYDRO-9H-PYRAZOLO[4,3-b]QUINOLIN-9-ONE]"

row,melting point,SMILES
1,263 °C,"CCc1ccc2c(=O)c3c(cnn3C)[nH]c2c1 [Example 9, 6-ETHYL-1-METHYL-1,4-DIHYDRO-9H-PYRAZOLO[4,3-b]QUINOLIN-9-ONE]"
2,282 °C,"Cn1ncc2[nH]c3ccc(Cc4ccccc4)cc3c(=O)c21 [Example 11, 7-BENZYL-1-METHYL-1,4-DIHYDRO-9H-PYRAZOLO[4,3-b]QUINOLIN-9-ONE]"
3,> 300 °C,"Cc1ccc2[nH]c3c(N)nn(C)c3c(=O)c2c1 [Example 12, 3-AMINO-1,7-DIMETHYL-1,4-DIHYDRO-9H-PYRAZOLO[4,3-b]QUINOLIN-9-ONE]"
4,278 °C,"Cn1ncc2[nH]c3ccc(Cc4ccccc4Cl)cc3c(=O)c21 [Example 15, 7-(2-CHLOROBENZYL)-1-METHYL-1,4-DIHYDRO-9H-PYRAZOLO[4,3-b]QUINOLIN-9-ONE]"
5,248 to 249 °C,"COc1ccc(Cc2ccc3[nH]c4cnn(C)c4c(=O)c3c2)cc1 [Example 16, 7-(4-METHOXYBENZYL)-1-METHYL-1,4-DIHYDRO-9H-PYRAZOLO[4,3-b]QUINOLIN-9-ONE]"
6,> 270 °C,"Cn1ncc2[nH]c3ccc(Cc4cccc(O)c4)cc3c(=O)c21 [Example 20, 7-(3-HYDROXYBENZYL)-1-METHYL-1,4-DIHYDRO-9H-PYRAZOLO[4,3-b]QUINOLIN-9-ONE]"
7,255 °C,"COc1ccccc1Cc1ccc2[nH]c3cnn(C)c3c(=O)c2c1 [Example 21, 7-(2-METHOXYBENZYL)-1-METHYL-1,4-DIHYDRO-9H-PYRAZOLO[4,3-b]QUINOLIN-9-ONE]"
8,279 to 283 °C,"Cn1ncc2[nH]c3ccc(Cc4cccc([N+](=O)[O-])c4)cc3c(=O)c21 [Example 23, 1-METHYL-7-(3-NITROBENZYL)-1,4-DIHYDRO-9H-PYRAZOLO[4,3-b]QUINOLIN-9-ONE]"
9,291 °C,"Cn1ncc2[nH]c3ccc(Cc4ccc(C#N)cc4)cc3c(=O)c21 [Example 26, 4-[(1-METHYL-9-OXO-4,9-DIHYDRO-1H-PYRAZOLO[4,3-b]QUINOLIN-7-YL)METHYL]BENZONITRILE]"
10,275 °C,"Cn1ncc2[nH]c3ccc(Cc4cccc(C#N)c4)cc3c(=O)c21 [Example 28, 3-[(1-METHYL-9-OXO-4,9-DIHYDRO-1H-PYRAZOLO[4,3-b]QUINOLIN-7-YL)METHYL]BENZONITRILE]"
11,> 300 °C,"Cn1ncc2[nH]c3ccc(Cc4cccc(C(N)=O)c4)cc3c(=O)c21 [Example 29, 3-[(1-METHYL-9-OXO-4,9-DIHYDRO-1H-PYRAZOLO[4,3-b]QUINOLIN-7-YL)METHYL]BENZAMIDE]"
12,> 300 °C,"Cn1ncc2[nH]c3ccc(Cc4cccc(C(=O)O)c4)cc3c(=O)c21 [Example 30, 3-[(1-METHYL-9-OXO-4,9-DIHYDRO-1H-PYRAZOLO[4,3-b]QUINOLIN-7-YL)METHYL]BENZOIC ACID]"
13,> 300 °C,"Cn1ncc2[nH]c3ccc(Cc4ccccc4C(N)=O)cc3c(=O)c21 [Example 32, 2-[(1-METHYL-9-OXO-4,9-DIHYDRO-1H-PYRAZOLO[4,3-b]QUINOLIN-7-YL)METHYL]BENZAMIDE]"
14,> 300 °C,"Cn1ncc2[nH]c3cccc(-c4ccc(O)cc4)c3c(=O)c21 [Example 38, 8-(4-HYDROXYPHENYL)-1-METHYL-1,4-DIHYDRO-9H-PYRAZOLO[4,3-b]QUINOLIN-9-ONE]"
15,> 300 °C,"Cn1ncc2[nH]c3cccc(-c4cccc(O)c4)c3c(=O)c21 [Example 39, 8-(3-HYDROXYPHENYL)-1-METHYL-1,4-DIHYDRO-9H-PYRAZOLO[4,3-b]QUINOLIN-9-ONE]"
16,> 250 °C,"Cn1ncc2[nH]c3ccc(-c4cccc(O)c4)cc3c(=O)c21 [Example 40, 7-[3-HYDROXYPHENYL]-1-METHYL-1,4-DIHYDRO-9H-PYRAZOLO[4,3-b]QUINOLIN-9-ONE]"
17,> 300 °C,"Cn1ncc2[nH]c3ccc(NC(=O)c4ccccc4)cc3c(=O)c21 [Example 46, N-(1-METHYL-9-OXO-4,9-DIHYDRO-1H-PYRAZOLO[4,3-b]QUINOLIN-7-YL)BENZAMIDE]"
18,262 °C,"CCCCn1c2ccc(C)cc2c(=O)c2c1cnn2C [Example 48, 4-BUTYL-1,7-DIMETHYL-1,4-DIHYDRO-9H-PYRAZOLO[4,3-b]QUINOLIN-9-ONE]"
19,214 to 219 °C,"Cc1ccc2c(c1)c(=O)c1c(cnn1C)n2CC#N [Example 51, (1,7-DIMETHYL-9-OXO-1,9-DIHYDRO-4H-PYRAZOLO[4,3-b]QUINOLIN-4-YL)ACETONITRILE]"
20,247 to 252 °C,"Cc1ccc2c(c1)c(=O)c1c(cnn1C)n2CC(N)=O [Example 52, 2-(1,7-DIMETHYL-9-OXO-1,9-DIHYDRO-4H-PYRAZOLO[4,3-b]QUINOLIN-4-YL)ACETAMIDE]"
21,125 °C,"CSCCn1c2ccc(C)cc2c(=O)c2c1cnn2C [Example 53, 1,7-DIMETHYL-4-[2-(METHYLSULFANYL)ETHYL]-1,4-DIHYDRO-9H-PYRAZOLO[4,3-b]QUINOLIN-9-ONE]"
22,179 °C,"Cc1ccc2c(c1)c(=O)c1c(cnn1C)n2CCCNS(C)(=O)=O [Example 60, N-[3-(1,7-DIMETHYL-9-OXO-1,9-DIHYDRO-4H-PYRAZOLO[4,3-b]QUINOLIN-4-YL)PROPYL]METHANESULFONAMIDE]"
23,196 °C,"Cc1ccc2c(c1)c(=O)c1c(cnn1C)n2CCCl [Example 62, 4-(2-CHLOROETHYL)-1,7-DIMETHYL-1,4-DIHYDRO-9H-PYRAZOLO[4,3-b]QUINOLIN-9-ONE]"
24,> 300 °C,"Cn1ncc2[nH]c3c(c(=O)c21)CCCC3 [Example 67, 1-METHYL-5,6,7,8-TETRAHYDRO-1H-PYRAZOLO[4,3-b]QUINOLIN-9-OL]"
